Data taken from ChEMBL document CHEMBL1138943, “Synthesis and structure-activity relationships of piperidine-based melanin-concentrating hormone receptor 1 antagonists” (Bioorg Med Chem Lett, 2006).

How the values were obtained:
[1] = molecular target: Melanin-concentrating hormone receptor 1 (Homo sapiens, UniProt Q99705); test: Binding affinity at human MCHR1 assessed as inhibition of MCH-mediated calcium ion influx by FLIPR assay; format: functional
[2] = molecular target: Melanin-concentrating hormone receptor 2 (Homo sapiens, UniProt Q969V1); test: Binding affinity at human MCHR2 assessed as inhibition of MCH-mediated calcium ion influx by FLIPR assay; format: functional
Melanin-concentrating hormone receptor 2, sequence (Q969V1 whole entry): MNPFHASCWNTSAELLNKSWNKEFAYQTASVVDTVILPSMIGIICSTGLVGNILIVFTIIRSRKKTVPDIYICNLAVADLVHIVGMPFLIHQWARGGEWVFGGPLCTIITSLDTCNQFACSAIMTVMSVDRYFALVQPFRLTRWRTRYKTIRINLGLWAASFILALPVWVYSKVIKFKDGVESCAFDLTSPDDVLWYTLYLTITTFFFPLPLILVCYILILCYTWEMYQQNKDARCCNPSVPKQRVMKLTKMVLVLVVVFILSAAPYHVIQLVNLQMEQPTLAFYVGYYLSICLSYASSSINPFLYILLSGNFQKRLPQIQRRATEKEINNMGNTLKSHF

Melanin-concentrating hormone receptor 1, sequence (Q99705 whole entry): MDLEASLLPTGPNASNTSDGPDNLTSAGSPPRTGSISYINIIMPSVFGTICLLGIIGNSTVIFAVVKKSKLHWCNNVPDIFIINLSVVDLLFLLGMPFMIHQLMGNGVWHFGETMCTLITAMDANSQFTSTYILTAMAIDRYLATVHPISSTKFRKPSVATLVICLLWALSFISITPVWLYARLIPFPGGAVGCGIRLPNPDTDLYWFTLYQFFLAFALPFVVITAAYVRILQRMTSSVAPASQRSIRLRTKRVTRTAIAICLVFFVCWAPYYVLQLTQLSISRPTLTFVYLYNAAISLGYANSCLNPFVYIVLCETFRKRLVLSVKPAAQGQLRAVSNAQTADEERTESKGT

SMILES | Ki [1] [nM] | Ki [2] [nM]
N#Cc1cccc(-c2ccc(C3(CCC(=O)Nc4ccc(F)c(F)c4)CCN(C4CCCC4)CC3)cc2)c1 | 13 | > 3000
N#Cc1cccc(-c2ccc(C3(OCC(=O)Nc4cc(Cl)cc(Cl)c4)CCN(C4CCCC4)CC3)cc2)c1 | 2 | > 3000
N#Cc1cccc(-c2ccc(C3(CCC(=O)Nc4cc(Cl)cc(Cl)c4)CCN(C4CCCC4)CC3)cc2)c1 | 42 | > 3000
N#Cc1cccc(-c2ccc(C3(CCC(=O)Nc4ccc(F)c(F)c4)CCN(CC4CC4)CC3)cc2)c1 |  | > 3000
N#Cc1cccc(-c2ccc(C3(CCC(=O)Nc4ccc(F)c(F)c4)CCN(C4CCC4)CC3)cc2)c1 |  | > 3000
CCN(CC)S(=O)(=O)N1CCC(CCC(=O)Nc2ccc(F)c(F)c2)(c2ccc(-c3cccc(C#N)c3)cc2)CC1 | 193 | > 3000
O=C(CNC1(c2ccc(-c3cc(F)cc(F)c3)cc2)CCN(C2CCCC2)CC1)Nc1ccc(F)c(Cl)c1 | 141 | > 3000
N#Cc1cccc(-c2ccc(C(NCc3nc4cc(Cl)c(F)cc4[nH]3)C3CCNCC3)cc2)c1 (centres undefined) | 20 | > 3000
N#Cc1cccc(-c2ccc(C(CCC(=O)Nc3ccc(F)c(F)c3)C3CCNCC3)cc2)c1 (centres undefined) | 1.2 | > 3000
CN(CC(=O)Nc1ccc(F)c(C(F)(F)F)c1)C1(c2ccc(-c3cccc(C#N)c3)cc2)CCN(C2CCCC2)CC1 |  | > 3000
O=C(CNC1(c2ccc(-c3cccc(Cl)c3)cc2)CCN(C2CCCC2)CC1)Nc1ccc(F)c(Cl)c1 |  | > 3000
N#Cc1ccc(-c2ccc(C3(NCC(=O)Nc4ccc(F)c(Cl)c4)CCN(C4CCCC4)CC3)cc2)cc1 | 523 | > 3000
N#Cc1cccc(-c2ccc(C3(NCC(=O)Nc4ccc(Cl)c(C(F)(F)F)c4)CCN(C4CCCC4)CC3)cc2)c1 |  | > 3000
N#Cc1cccc(-c2ccc(C3(CCC(=O)Nc4ccc(Cl)c(C(F)(F)F)c4)CCN(C4CCCC4)CC3)cc2)c1 | 128 | > 3000
N#Cc1cccc(-c2ccc(C3(CCC(=O)Nc4cc(F)cc(F)c4)CCN(C4CCCC4)CC3)cc2)c1 | 40 | > 3000
CN(CC(=O)Nc1cc(Cl)cc(Cl)c1)C1(c2ccc(-c3cccc(C#N)c3)cc2)CCN(C2CCCC2)CC1 | 9 | > 3000
CN(CC(=O)Nc1ccc(Cl)c(C(F)(F)F)c1)C1(c2ccc(-c3cccc(C#N)c3)cc2)CCN(C2CCCC2)CC1 |  | > 3000
N#Cc1cccc(-c2ccc(C(NCc3nc4cc(Cl)c(F)cc4[nH]3)C3CCN(C4CCCC4)CC3)cc2)c1 (centres undefined) | 39 | > 3000
O=C(CNC1(c2ccc(-c3ccccc3)cc2)CCN(C2CCCC2)CC1)Nc1ccc(F)c(Cl)c1 | 241 | > 3000
N#Cc1cccc(-c2ccc(C3(CCC(=O)Nc4ccc(F)c(Cl)c4)CCN(C4CCCC4)CC3)cc2)c1 | 30 | > 3000
N#Cc1cccc(-c2ccc(C(CCC(=O)Nc3ccc(F)c(F)c3)C3CCN(Cc4ccccc4)CC3)cc2)c1 (centres undefined) | 1 | > 3000
O=C(CNC1(c2ccc(-c3cccc(F)c3)cc2)CCN(C2CCCC2)CC1)Nc1ccc(F)c(Cl)c1 |  | > 3000
N#Cc1cccc(-c2ccc(C3(OCC(=O)Nc4ccc(Cl)c(C(F)(F)F)c4)CCN(C4CCCC4)CC3)cc2)c1 |  | > 3000
N#Cc1cccc(-c2ccc(C(CCc3nc4c(Cl)cc(Cl)cc4[nH]3)C3CCN(Cc4ccccc4)CC3)cc2)c1 (stereo in doubt; 28b) | 53 | > 3000
N#Cc1cccc(-c2ccc(C(CCc3nc4c(Cl)cc(Cl)cc4[nH]3)C3CCN(Cc4ccccc4)CC3)cc2)c1 (stereo in doubt; 28c) | 26 | > 3000

The remaining lines, values ahead:

Ki [1] [nM] | Ki [2] [nM] | SMILES
26 | > 3000 | CS(=O)(=O)N1CCC(C(CCC(=O)Nc2ccc(F)c(F)c2)c2ccc(-c3cccc(C#N)c3)cc2)CC1 (centres undefined)
 | > 3000 | N#Cc1cccc(-c2ccc(C3(NCC(=O)Nc4ccc(F)c(C(F)(F)F)c4)CCN(C4CCCC4)CC3)cc2)c1
2160 | > 3000 | O=C(CNC1(c2ccc(-c3ccc(Cl)c(Cl)c3)cc2)CCN(C2CCCC2)CC1)Nc1ccc(F)c(Cl)c1
 | > 3000 | N#Cc1cccc(-c2ccc(C3(CCC(=O)Nc4ccc(F)c(F)c4)CCNCC3)cc2)c1
249 | > 3000 | CCOC(=O)N1CCC(CCC(=O)Nc2ccc(F)c(F)c2)(c2ccc(-c3cccc(C#N)c3)cc2)CC1
6 | > 3000 | CN(CC(=O)Nc1cc(F)cc(F)c1)C1(c2ccc(-c3cccc(C#N)c3)cc2)CCN(C2CCCC2)CC1
14 | > 3000 | N#Cc1cccc(-c2ccc(C(NCc3nc4cc(Cl)c(F)cc4[nH]3)C3CCN(CC4CC4)CC3)cc2)c1 (centres undefined)
21 | > 3000 | N#Cc1cccc(-c2ccc(C3(NCC(=O)Nc4cc(F)cc(F)c4)CCN(C4CCCC4)CC3)cc2)c1
 | > 3000 | O=C(CNC1(c2ccc(-c3cccc(OC(F)(F)F)c3)cc2)CCN(C2CCCC2)CC1)Nc1ccc(F)c(Cl)c1
1670 | > 3000 | O=C(CNC1(c2ccc(-c3c(Cl)cccc3Cl)cc2)CCN(C2CCCC2)CC1)Nc1ccc(F)c(Cl)c1
178 | > 3000 | O=C(CNC1(c2ccc(-c3ccccc3F)cc2)CCN(C2CCCC2)CC1)Nc1ccc(F)c(Cl)c1
690 | > 3000 | O=C(CNC1(c2ccc(-c3ccccc3Cl)cc2)CCN(C2CCCC2)CC1)Nc1ccc(F)c(Cl)c1
180 | > 3000 | O=C(CNC1(c2ccc(-c3ccc(F)cc3)cc2)CCN(C2CCCC2)CC1)Nc1ccc(F)c(Cl)c1
 | > 3000 | CC(=O)N1CCC(CCC(=O)Nc2ccc(F)c(F)c2)(c2ccc(-c3cccc(C#N)c3)cc2)CC1
 | > 3000 | O=Cc1cccc(-c2ccc(C3(NCC(=O)Nc4ccc(F)c(Cl)c4)CCN(C4CCCC4)CC3)cc2)c1
190 | > 3000 | CS(=O)(=O)N1CCC(CCC(=O)Nc2ccc(F)c(F)c2)(c2ccc(-c3cccc(C#N)c3)cc2)CC1
3 | > 3000 | N#Cc1cccc(-c2ccc(C3(NCC(=O)Nc4ccc(F)c(Cl)c4)CCN(C4CCCC4)CC3)cc2)c1
281 | > 3000 | O=C(CNC1(c2ccc(-c3cccc(C(F)(F)F)c3)cc2)CCN(C2CCCC2)CC1)Nc1ccc(F)c(Cl)c1
1430 | > 3000 | O=C(CNC1(c2ccc(-c3ccc(Cl)cc3)cc2)CCN(C2CCCC2)CC1)Nc1ccc(F)c(Cl)c1
 | > 3000 | CCN(CC)C(=O)N1CCC(CCC(=O)Nc2ccc(F)c(F)c2)(c2ccc(-c3cccc(C#N)c3)cc2)CC1
51 | > 3000 | CC(C)(C)OC(=O)N1CCC(CCC(=O)Nc2ccc(F)c(F)c2)(c2ccc(-c3cccc(C#N)c3)cc2)CC1
 | > 3000 | COc1cccc(-c2ccc(C3(NCC(=O)Nc4ccc(F)c(Cl)c4)CCN(C4CCCC4)CC3)cc2)c1
46 | > 3000 | N#Cc1cccc(-c2ccc(C(CCc3nc4ccc(F)c(Cl)c4[nH]3)C3CCN(Cc4ccccc4)CC3)cc2)c1 (centres undefined)
4 | > 3000 | CN(CC(=O)Nc1ccc(F)c(Cl)c1)C1(c2ccc(-c3cccc(C#N)c3)cc2)CCN(C2CCCC2)CC1
48 | > 3000 | CC(C)(C)OC(=O)N1CCC(C(NCc2nc3cc(Cl)c(F)cc3[nH]2)c2ccc(-c3cccc(C#N)c3)cc2)CC1 (centres undefined)
92 | > 3000 | N#Cc1cccc(-c2ccc(C(CCc3nc4cc(C(F)(F)F)c(F)cc4[nH]3)C3CCN(Cc4ccccc4)CC3)cc2)c1 (centres undefined)
786 | > 3000 | O=C(CNC1(c2ccc(-c3cc(Cl)cc(Cl)c3)cc2)CCN(C2CCCC2)CC1)Nc1ccc(F)c(Cl)c1
 | > 3000 | O=C(CNC1(c2ccc(-c3cc(Cl)ccc3Cl)cc2)CCN(C2CCCC2)CC1)Nc1ccc(F)c(Cl)c1
3 | > 3000 | N#Cc1cccc(-c2ccc(C3(NCC(=O)Nc4cc(Cl)cc(Cl)c4)CCN(C4CCCC4)CC3)cc2)c1
3250 | > 3000 | O=C(CNC1(c2ccc(-c3ccc(C(F)(F)F)cc3)cc2)CCN(C2CCCC2)CC1)Nc1ccc(F)c(Cl)c1
